Read-outs that look alike come from different tables or passages of the source.
Columns and labels:
[1] = target: T1, Peroxisome proliferator-activated receptor γ (Homo sapiens, UniProt P37231); test: cell-based; conditions: for EC10, linear / logEC10 / EC10, linear transformed: PPARγ bioassay; for EC10, linear: linear model; for logEC10: log-logistic model; for EC10, PPARγ (M): 10% of maximum effect of rosiglitazone; for SR-ScorePPARγ: SR-Score, sigma k=1, x=5; for Specificity ratio (SRbaseline) SRPPARγ: against baseline cytotoxicity; for Specificity ratio (SRcytotoxicity) SRPPARγ: against experimental cytotoxicity; for EC10, PPARγ: effect; for log(1/EC10) PPARγ: input of the ToxPi score, values up to 1.00; for Emax: read-out: Emax%PPARγ
T1 sequence (P37231 238-505 limits assumed): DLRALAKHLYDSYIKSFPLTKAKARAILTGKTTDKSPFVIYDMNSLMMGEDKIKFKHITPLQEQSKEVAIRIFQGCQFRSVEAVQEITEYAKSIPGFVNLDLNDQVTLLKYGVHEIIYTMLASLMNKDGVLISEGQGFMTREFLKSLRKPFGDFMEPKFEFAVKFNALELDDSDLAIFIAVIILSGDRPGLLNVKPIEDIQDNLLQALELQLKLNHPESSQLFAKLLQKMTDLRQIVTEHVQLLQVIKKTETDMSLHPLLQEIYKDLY
Source text: All bioassay media components and the ERα-UAS-bla GripTite and PPARγ-UAS-bla cells were obtained from Thermo Fisher Scientific (Waltham, MA, USA). AREc32 reporter gene cells based on MCF7 were provided by C. Roland Wolf (Cancer Research UK); AhR CALUX cells (H4L7.5c2 derived from H4IIe) were provided by Michael Denison (UC Davis, USA); and SH-SY5Y cells were purchased from Sigma-Aldrich.
(§1) Cell culture conditions and bioassay protocols including response detection are provided in Text S2.1–2.4 and Table S3. − Cell viability was determined from cell confluency using an IncuCyte S3 Live-Cell Analysis System (Sartorius AG, Essen, Germany) before and after exposure, except for SH-SY5Y cells (live–dead staining with Nuclear Green LcS1 and propidium iodide, Abcam, UK). For metabolic activation experiments, cell viability was assessed using the ToxBLAzer DualScreen Kit (Thermo Fisher Scientific) to capture the remaining toxicity in ERα-UAS-bla GripTite after treatment with the aCYP catalyst (details in Text S2.4).
For ARE, the concentration that triggered an induction ratio of 1.5 (ECIR1.5) was used as the benchmark value, as detailed in Text S2.5. IC10 values also served as a threshold for data analysis in all assays; only concentrations below IC10 were considered when deriving EC10 or ECIR1.5.
The maximum efficacy (Emax%) refers to the maximum of the log–logistic concentration–response curve attained by test chemicals compared to the reference chemical’s maximum and was obtained for both ERα and PPARγ. […]
S2: Cell culture and bioassays
S2.1: Cell Culturing Conditions
All suppliers and sources are given in detail in SI-Excel S3. The bioassay media for the different assays were prepared as follows: Assay medium for ER alpha-UAS-bla GripTite (ERα) and […]
2% charcoal-stripped FBS, and 100 U/mL penicillin-streptomycin. […]
S2.2: Cell Seeding and Incubation. For all bioassays, cell suspensions in the respective assay medium were dispensed into each well of 384-well plates using a MultiFlo Dispenser (Biotek, (now Agilent), Winooski, VT, U.S.). After seeding, the plates were incubated at 37° C and 5% CO₂ for […]. The final cell densities and plate types were as follows: Black poly-D-lysine […]
6500 cells/well, ERα: 5000 cells/well. White 384-well plates with a clear bottom (Product No. […]
S2.3: Chemical Dosing and Assay Analysis Procedures.

[2] = Acidity constant (pKa) measurement, Sirius T3 UV-metric, and speciation at pH 7.4; conditions: for Negative form (pH = 7.40) / Neutral form (pH = 7.40) / αneutral % (fraction of neutral species) / Double negative form (pH = 7.40): from experimental pKa; for αneutral % (fraction of neutral species): pH 7.4; for pKa: pKa (Acid)
Experimental: Physicochemical properties provide input parameters for the baseline toxicity model. Acidity constants (pK a) and octanol–water partition constants of the neutral species (K ow) were measured with a Sirius T instrument from Pion Inc. (Sussex, UK) (Text S1.2 and Table S1). A detailed description of the pK a and K ow measurements can be found in literature. , […]
S1.2: pKa and log Kow measurements […]
titrator (Pion Inc., Sussex, U.K.). A detailed description of the experimental procedure is available in the literature.1 In brief, each sample was prepared by mixing 5 µL of a 10 mM dimethyl sulfoxide (DMSO) stock solution with 25 µL of a phosphate buffer solution (14.4 mM […]
A reference vial containing 5 µL of DMSO
(Roth, A994-100 ML) and 25 µL of phosphate buffer was analyzed alongside each sample.
The pKa values were determined using the automated UV-metric pKa protocol within the Sirius T3 Control software (version 2.0.0.0.). Each sample was subjected to three consecutive […]
from 2 to 12 by stepwise addition of 0.5 M HCl or 0.5 M potassium hydroxide while recording […]
UV absorbance. […]
To ensure reproducibility, measurements were conducted on at least two

[3] = tested on: ERα-UAS-bla GripTite cells
Experimental: as §1, with “S2.4). […]” for “S2.4).”
The TK-Ratio method was used to evaluate the impact of abiotic CYP oxidation on the potency of tested compounds. […]
For experiments with the preceding aCYP activation, ERα cell viability was additionally calculated from the readout of the ToxBLAzer reagent. The ToxBLAzer assay was conducted following the manufacturer's instructions (Thermo Fisher, Waltham, MA, U.S.).13 Fluorescence intensity was recorded at the start of the assay ( Fwavelength(0h)) and after a 2-hour incubation at […]
eq. S11 for normalization.
Cell viability = F665nm(2h, sample)-F665nm(0h, average cell-free) (S11) F665nm(2h, average unexposed)-F665nm(0h, average cell-free) […]
the specific endpoint to avoid artifacts from cytotoxicity burst. 15
S2.5: Concentration-response curves (CRCs)
To avoid bias from cytotoxicity burst at higher concentrations, all concentrations exceeding the IC10 for cytotoxicity were excluded in the CRC modeling of effects but otherwise cytotoxicity and effects were fitted with the same model equations (response stands for cytotoxicity or effect). For ERα, AhR, ARE and PPARγ preferably a linear model was fitted to the linear portion of CRC up to maximum 30% effect (eq. S12),16 but in some cases it was necessary to choose a sigmoidal log-concentration-response model, specifically a log-logistic model (eq. S13), to derive effect concentrations and cytotoxicity. […]
This was done using the
AutomatedBioassayScreening19 published by Braun et al.,20 which also included an algorithm to choose the best model between eq. S12 and eq. S13.
Response (%) = slope × C (S12) […]
logEC =logEC − 1 ∙log (max−min − 100%) (S14)

[4] = phosphate buffer with […] KCl, Sirius T3 titrator, experimental, this study
[5] = Table S10, TKcytotoxicity-Ratio
[6] = Table S11, TKcytotoxicity-Ratio

Row | SMILES | EC10, linear ([1]; dosing range all) | logEC10 ([1]; dosing range all) | Negative form (pH = 7.40) [2] [%] | Neutral form (pH = 7.40) [2] [%] | αneutral % (fraction of neutral species) [2] [%] | pKa [2, 4] | TKcytotoxicity [3, 5] | pKa (Acid) [2] | Double negative form (pH = 7.40) [2] [%] | pKa [2] | EC10, PPARγ (M) [1] | SR-ScorePPARγ [1] | Specificity ratio (SRbaseline) SRPPARγ [1] | Specificity ratio (SRcytotoxicity) SRPPARγ [1] | EC10, PPARγ [1] [nM] | log(1/EC10) PPARγ [1] | Emax [1] [%] | further results
1 | CC(C)Oc1ccc(S(=O)(=O)c2ccc(O)cc2)cc1 [D8, 4-((4-Isopropoxyphenyl)sulfonyl)phenol] | 5.40E-06 | no effect | 39 | 61 | 61 | 7.6 | 0.94 | – | – | – | – | – | – | – | – | – | – | –
2 | CC(c1ccc(O)cc1)c1ccc(O)cc1 [BPE, 4,4′-Ethylidenbisphenol] | no effect | no effect | 2.24 | 98 | 98 | – | 0.63 | 9.99 | 0.00576 | 9.04 | – | – | – | – | – | – | – | –
3 | Oc1ccc(C(c2ccc(O)cc2)(C(F)(F)F)C(F)(F)F)cc1 [BPAF, 4,4'-(1,1,1,3,3,3-Hexafluoropropane-2,2-diyl)diphenol] | no effect | no effect | 4.47 | 95 | – | – | 1.14 | 8.73 | 0.0417 | 9.43 | – | – | – | – | – | – | – | –
4 | O=S(=O)(c1ccc(O)cc1)c1ccc(OCc2ccccc2)cc1 [BPS-MPE, 4-[4-(benzyloxy)benzenesulfonyl]phenol] | – | – | 32 | 68 | 68 | 7.73 | 0.45 | – | – | – | 2.35 × 10^–7 M | 1.00 | 49.84 | 570.13 | 235 | 0.94 | 25 | EC10, linear transformed ([1]; dosing range high): 1.15E-09; EC10, linear ([1]; dosing range high): 1.01E-07; logEC10 ([1]; dosing range high): -8.94; EC10, linear transformed ([1]; dosing range low): 2.35E-07; EC10, linear ([1]; dosing range low): 4.02E-07; logEC10 ([1]; dosing range low): -6.63
5 | CC(C)(c1cc(Cl)c(O)c(Cl)c1)c1cc(Cl)c(O)c(Cl)c1 [TCBPA, 2,2',6,6'-Tetrachlorobisphenol A] | – | – | 60 | 29 | 29 | – | 0.85 | 8.13 | 11 | 7.08 | – | 1.00 | – | – | 155 | 0.96 | 32 | EC10, linear transformed ([1]; dosing range high): 4.16E-08; EC10, linear ([1]; dosing range high): 7.40E-08; logEC10 ([1]; dosing range high): -7.38; EC10, linear transformed ([1]; dosing range low): 1.55E-07; EC10, linear ([1]; dosing range low): 1.92E-07; logEC10 ([1]; dosing range low): -6.81; TKcytotoxicity [3, 6]: 0.40
6 | Cc1ccc(S(=O)(=O)NC(=O)Nc2ccc(Cc3ccc(NC(=O)NS(=O)(=O)c4ccc(C)cc4)cc3)cc2)cc1 [BTUM, 4,4'-Bis(p-tolylsulfonylureido)diphenylmethane] | 2.64E-07 | -6.59 | 0.47 | 0.0007 | 0.0007 | 4.59 | – | – | 99.53 | – | 2.56 × 10^–7 M | 1.00 | 110.22 | 121.09 | 256 | 0.93 | 47 | SR (PPARγ) ([1]; specificity ratio): 121; pKa ([2]; phosphate buffer with […] KCl, Sirius T3 titrator, second pKa column, experimental, this study): 5.07; IC10, before oxidation ([3]; Table S10, cytotoxicity from ToxBLazer data, without simultaneous cparent measurement): no cytotoxicity; TKcytotoxicity [3, 6]: 2.25
7 | CC(C)(c1ccc(O)c(-c2ccccc2)c1)c1ccc(O)c(-c2ccccc2)c1 [BPPH, 2,2-Bis(2-hydroxy-5-biphenylyl)propane] | 9.24E-07 | -6.26 | 0.825 | 99 | 99 | – | 0.11 | – | 0.000533 | – | 5.55 × 10^–7 M | 1.00 | 1.90 | 12.47 | 555 | 0.88 | 12 | EC10, linear transformed ([1]; dosing range all): 5.55E-07; pKa ([2]; second pKa column, experimental, this study): 10.6; pKa ([2]; experimental, this study): 9.48
8 | O=S(=O)(c1ccc(O)cc1)c1ccccc1O [2,4-BPS, 2,4'-Dihydroxydiphenyl sulfone] | no effect | no effect | 52 | 43 | 43 | – | – | 8.43 | 5 | 7.31 | – | – | – | – | – | – | – | TKcytotoxicity ([3]; human): 1.61

— article PMC12392461, “Beyond Estrogenicity: A Comparative Assessment of Bisphenol A and Its Alternatives in In Vitro Assays Questions Safety of Replacements” (Environmental Science & Technology, 2025)
